From patent US7977056B2, “Methods of identifying stimulants for biogenic methane production from hydrocarbon-bearing formations” (Synthetic Genomics, Inc., priority 2008, dated 2011)
Entries after “also recorded” stand apart in the source; their conditions may differ.

system: defined microbial assemblage; assay: Stimulation of methane production by a defined microbial assemblage grown on coal as sole carbon source; format: cell-based; settings: defined microbial assemblage, in vitro culture with coal as sole carbon source, after stimulation with the substance
Procedure: The availability of a defined microbial assemblage producing methane from coal in vitro, as well as a suite of strains capable of aerobic coal degradation prompted laboratory experiments where various stimulants were tested for their effect on methane production.
This degradation is stimulated by the addition of oxygen as reactant for the oxygenase-classes of enzymes present in some of the strains included in the DMA.

Row | Structure (SMILES) | methane production
1 | [HH] [H2, hydrogen] | increased methane production
2 | CC(=O)O [acetate] | increased methane production
3 | CN(C)C [trimethylamine] | increased methane production
4 | OCC(O)CO [glycerol] | increased methane production
5 | O=O [oxygen] | greatest increase in methane production; also recorded: increased methane production

same assay, conditions: oxygen applied at higher than optimal levels

Row | Structure (SMILES) | methanogenesis
6 | O=O [oxygen] | represses methanogenesis
